Data set [1] deals with salivation in rabbits. Put plainly: anticholinergic action: inhibition of pilocarpine-increased salivation in rabbits under light urethane narcosis. The format is in vivo. The following applies: for inhibition at 3 mg/kg: Oryctolagus cuniculus, 3 mg/kg i.v., pilocarpine 5 mg/kg s.c. Here is the method:
The low anticholinergic action can be shown by the lack of salivation inhibition in rabbits: The salivation in rabbits under light urethane narcosis was increased by pilocarpine injection (5 mg/kg. s.c.) and the amount of saliva was measured at 5-minute intervals. The inhibition of salivation is expressed as a percentage based upon the salivation of animals which only received pilocarpine.

Data set [2] deals with rats. Description: antidepressive action: suppression of ptosis, seeking behavior, motility and sensitivity to stimulus in rats given 2-hydroxy-2-ethyl-3-isobutyl-9,10-dimethoxy-1,2,3,4,6,7-hexahydro-11bH-benzo[a,d]quinolizine hydrochloride. It counts as in vivo. The following applies: 3 x 50 mg/kg p.o.; for Activity in % compared to Amitriptyline: Amitriptyline 100%. Here is the method: The same dosage was administered to a control group of 5 non-pretreated rats. The ratings include central and peripheral symptoms, which are characteristic for tricyclic antidepressants [cf. Ann. N.Y. Acad. Sci. 96, 279 (1962)]. […] These changes were recorded according to a rating scheme which utilized numbers. […] The stated percentages are compared with the values for Amitriptyline* (Amitriptyline 100%).

In data set [3] the test system is mice. Put plainly: acute toxicity in mice (24-hour values). The following applies: mouse, in vivo. From the text:
(§1) The low toxicity of the compounds of the invention can be illustrated by the acute toxicity of 1-methyl-10,11-dihydro-5-(3-dimethylaminopropyl)-5H-dibenzo[a,d]cycloheptene hydrochloride in mice (24-hour values): […]

Data set [4] can be described thus: acute toxicity in mice (24-hour values). The following applies: mouse, in vivo, mice, 24-hour values.
Excerpt: as §1

SMILES strings stand for the structures. Structures can show the parent of a compound that is named as a salt. Where two headings read alike, the source gives them in different places.

Broadly, the inhibition is the drop in the measured response relative to a control, in per cent. Usually LD50 stands for the dose expected to kill half of the subjects tested.

In data set [1], `CNCCCC1c2ccccc2CCc2c(C)cccc21.Cl` (stereo not shown) [1-Methyl-10,11-dihydro-5-(3-methylaminopropyl)-5H-dibenzo[a,d]cycloheptene hydrochloride] showed an inhibition at 3 mg/kg of 40%. The “Activity in % compared to Amitriptyline” value in data set [2] amounted to 180%.
The like results for `Cc1cccc2c1C=Cc1ccccc1C2=CCC[N+](C)(C)[O-]` [1-methyl-5-(3-dimethylaminopropylidene)-5H-dibenzo[a,d]cycloheptene N-oxide hydrochloride] were, in that order, 14% and 140%.
Turning to `Cc1cccc2c1C=Cc1ccccc1C2=CCC[N+](C)(C)[O-]` [1-methyl-5-(3-dimethylaminopropylidene)-5H-dibenzo[a,d]cycloheptene N-oxide], the “salivation inhibition / anticholinergic action (in words)” value in data set [1] is “absence of substantial anticholinergic action”. Further, the results for the “antidepressive action (in words)” value in data set [2] and in data set [2] (listed as 1-methyl-5-(3-dimethylaminopropylidene)-5-H-dibenzo[a,d]cyclohehptene N-oxide) were “excellent antidepressive action” and “considerably increased antidepressive action”, respectively. For the same compound, in data set [3], the “toxicity (in words)” value is “reduced toxicity”.
In data set [1], `Cc1cccc2c1C=Cc1ccccc1C2=CCCN(C)C.Cl` [1-methyl-5-(3-dimethylaminopropylidene)-5H-dibenzo[a,d]cycloheptene hydrochloride] had an inhibition at 3 mg/kg of 60%. Besides, the “Activity in % compared to Amitriptyline” value in data set [2] came to 130%.
Take `CNCCC=C1c2ccccc2C=Cc2c(C)cccc21.Cl` [1-methyl-5-(3-methylaminopropylidene)-5H-dibenzo[a,d]cycloheptene hydrochloride]: the inhibition at 3 mg/kg in data set [1] is 60%. Further, the “Activity in % compared to Amitriptyline” value in data set [2] came out at 230%.
The compound `Cc1cccc2c1CCc1ccccc1C2CCCN(C)C.Cl` (stereo not shown) [1-methyl-10,11-dihydro-5-(3-dimethylaminopropyl)-5H-dibenzo[a,d]cycloheptene hydrochloride] had an inhibition at 3 mg/kg in data set [1] of 50%. In addition, the “Activity in % compared to Amitriptyline” value in data set [2] stood at 180%. The LD50 at 24 h in data set [4] (iv, i.v., read-out: LD50 i.v.) fell in the range of 25 to 50 mg/kg; in data set [4] (po, p.o., read-out: LD50 p.o.) it was 300 to 600 mg/kg.
Compound `Cc1cccc2c1CCc1ccccc1C2=CCCN(C)C.Cl` [1-methyl-10,11-dihydro-5-(3-dimethylaminopropylidene)-5H-dibenzo[a,d]cycloheptene hydrochloride] had an inhibition at 3 mg/kg in data set [1] of 50%. The “Activity in % compared to Amitriptyline” value in data set [2] is on record as 220%.
In the same order, the values of `CNCCC=C1c2ccccc2CCc2c(C)cccc21.Cl` [1-methyl-10,11-dihydro-5-(3-methylaminopropylidene)-5H-dibenzo[a,d]cycloheptene hydrochloride] are 50% and 140%.
For the compound `CN(C)CCC=C1c2ccccc2CCc2ccccc21` [Amitriptyline, 5-(3-dimethylaminopropylidene)-dibenzo[a,d][1,4] cycloheptadiene, reference compound], at 3 mg/kg the inhibition in data set [1] was 96%. In addition, the “Activity in % compared to Amitriptyline” value in data set [2] is 100%.

The values above are taken from US3952017A, “Tricyclic compounds” (Hoffmann-La Roche Inc., priority 1968, dated 1976).
